Reference: US8669246B2, “Substituted amide compound” (Astellas Pharma Inc., priority 2009, dated 2014)
pIC50: −log10 of the molar value.

Assays:
[1] = test system: LPA-induced increase in urethral pressure; experiment: Inhibitory action on LPA-induced increase in urethral pressure in rats under anesthesia; type: in vivo, rat (male Wistar); conditions: Rattus norvegicus, 5 min; 0.1 mg/kg intravenous, LPA (1-oleoyl) 3 mg/kg iv after 5 minutes, anesthetized rats, vs solvent; read-out: Inhibitory rate
Experimental: Inhibitory Action of Compound of Formula (I) on LPA-Induced Increase in Urethral Pressure in Rats Under Anesthesia (with Intravenous Administration at 0.1 mg/kg) Male Wistar rats (Charles River, 9- to 12-week old) were anesthetized with urethane (1.2 g/kg ip), and held in the supine position on an operating table kept at 37° C. The lower abdominal portion was midline-incised and the bladder was thus exposed. A small portion of the bladder apex was incised, a microchip pressure transducer (Millar) was inserted antegrade, and then placed in the urethra, and the urethral pressure was recorded continuously. In addition, a cannula for administration of a drug was placed into the femoral vein. After about 1 hour of stabilization, the compound of formula (I) (0.1 mg/kg) was administered intravenously. After 5 minutes, LPA (1-oleoyl) was administered intravenously at 3 mg/kg, and the changes in the urethral pressure were recorded. The inhibitory rates (%) of the compound of the formula (I) on the LPA-stimulated increase in the urethral pressure compared with those after administration of the solvent of the compound of the formula (I) were recorded.

[2] = Estimation of concentration in plasma after oral administration in rats using ex vivo bioassay method; conditions: male, Wistar, rat, 2 hours after oral administration, estimated by ex vivo bioassay from standard curve
Experimental: Estimation of Concentration in Plasma (2 Hours after Oral Administration) after Administration of Compound of Formula (I) in Rats Using Ex Vivo Bioassay Method
The concentration in the plasma after administration of the compound of the formula (I) in rats was estimated according to a bioassay method. That is, test compounds were orally administered to male Wistar rats (Charles River, 6-week old, and fasted), and after a certain period of time, blood was collected from the ophthalmic basilar plexus to give plasma. The compound was extracted from the plasma, and the extracted compound was dissolved in a certain amount of DMSO. Further, for the standard curve, the plasma in which the compounds at various concentrations had been dissolved was prepared separately, and the same extraction procedure was conducted.
The inhibitory action on the LPA-stimulated increase in the intracellular calcium ion concentration in LPA1-expressing cells in the DMSO extract was measured, and the plasma concentration in the individual after administration was estimated from the standard curve.

human LPA1 = target: T1, human LPA1 (Homo sapiens, UniProt Q92633); experiment: Antagonistic action on human LPA1: inhibition of LPA-stimulated increase in intracellular calcium ion concentration in human LPA1-CHO cells; type: cell-based; conditions: LPA 100 nM, Fluo-4/FLIPR calcium signal
T1 construct: expressed in transfected cells
Experimental: Antagonistic Action of Compound of Formula (I) on Human LPA1
The antagonistic action on a human LPA 1 was evaluated with an index of an inhibitory action on the LPA-stimulated increase in intracellular calcium ion concentration, using human LPA 1-CHO cells [cells in which human LPA1 receptors are stably expressed in CHO (dhfr gene-deficient) cell lines].
Establishment of human LPA1-CHO cells was performed based on the basic genetic engineering techniques.
The established cells were maintained by passage in a nucleic acid-free α-MEM medium (Invitrogen) containing 10% FBS, 1% penicillin/streptomycin (Invitrogen), and 100 nM methotrexate, and before experiment, the medium was replaced with a medium that had been reduced to 1% of the […] concentration, then seeded in 96-well plates to 1.5×10e^5 cells/100 μL/well, and incubated overnight.
On the day of experiment, a 0.5 μM Fluo-4 solution [a solution prepared by adding 20 mM HEPES (Sigma), […] probenecid (Nacalai Tesque), 0.05% BSA, 0.5 μM Fluo-4 AM (Dojindo Laboratories), and 0.1% Pluronic […] (Molecular Probe Co.) to a Hanks Balanced Solt Solution (Invitrogen)] was added to the cells, and Fluo-4 was loaded on the cells by incubating for 2 hours at room temperature.
After loading Fluo-4, the Fluo-4 solution was replaced with a reaction solution [a solution obtained by adding 20 mM HEPES, […] probenecid, and 0.05% BSA to a Hanks Balanced Solt Solution], and then measurement was performed using a device for measuring an intracellular calcium concentration (FLIPR tetra, Molecular Devices Inc.).
A reaction solution in which the compound of the formula (I) (with a final concentration of 0.1 nM to 10 μM) had been dissolved was added to each of the wells, the signals were measured over time for 4 minutes, then a reaction solution in which LPA (final concentration 100 nM) had been dissolved was added thereto, and the signals were measured over time for 2 minutes. The difference between the maximum and minimum response during one minute from addition of LPA was calculated. The inhibitory activity was calculated, with a response when LPA only (not including the compound) was added was taken as 0% inhibition, and a response when a reaction solution not including both of the compound and LPA was added was taken as 100% inhibition. Then the 50% inhibitory concentration was calculated as an IC50 value (nM).
Human LPA1-CHO cells used in the present test were the cells with the same sequence as described in the pamphlet of International Publication WO 99/19513 were used. Further, Ex represents Example No. as denoted below.

T1 sequence (Q92633 whole entry): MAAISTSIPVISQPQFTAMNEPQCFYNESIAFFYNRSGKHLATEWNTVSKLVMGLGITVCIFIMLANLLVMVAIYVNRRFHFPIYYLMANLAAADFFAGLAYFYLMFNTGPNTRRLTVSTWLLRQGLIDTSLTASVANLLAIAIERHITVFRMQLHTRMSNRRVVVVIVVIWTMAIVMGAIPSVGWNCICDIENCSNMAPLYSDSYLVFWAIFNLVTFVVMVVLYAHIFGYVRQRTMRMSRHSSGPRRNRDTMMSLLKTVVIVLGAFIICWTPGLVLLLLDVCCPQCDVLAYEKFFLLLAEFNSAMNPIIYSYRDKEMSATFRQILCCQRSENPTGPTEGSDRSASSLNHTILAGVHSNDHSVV

Row | concentration at 2 h [2] [nM] | pIC50 (human LPA1) | melting point [°C] | Structure (SMILES) | inhibition in vivo at 0.1 mg/kg [1] [%]
1 | 8300 | – | – | COc1cc(C(=O)N(CCCc2ccccc2)Cc2nc(C(=O)N(C)S(N)(=O)=O)cs2)cc(OC)c1C [Example 9, N-(aminosulfonyl)-2-{[(3,5-dimethoxy-4-methylbenzoyl)(3-phenylpropyl)amino]methyl}-N-methyl-1,3-thiazole-4-carboxamide] | 28
2 | 1300 | 7.62 | – | COc1cc(C(=O)N(CCCc2ccccc2)Cc2nc(C(=O)NS(=O)(=O)N(CCO)CCF)cs2)cc(OC)c1C [Example 22, 2-{[(3,5-dimethoxy-4-methylbenzoyl)(3-phenylpropyl)amino]methyl}-N-{[(2-fluoroethyl)(2-hydroxyethyl)amino]sulfonyl}-1,3-thiazole-4-carboxamide] | –
3 | 6500 | 7.85 | – | COc1ccc(C(O)C(=O)N(CCCc2ccccc2)Cc2nc(C(=O)NS(=O)(=O)N(C)C)c(C)s2)c(F)c1 (centres unmarked) [Example 27] | –
4 | 1800 | 7.54 | – | COc1ccc(C2(C(=O)N(CCCc3ccccc3)Cc3nc(C(=O)NS(=O)(=O)N(C)C)c(C)s3)CC2)cc1 [Example 56] | –
5 | 2100 | 7.80 | 143 to 144 | CCNS(=O)(=O)NC(=O)c1csc(CN(CCCc2ccccc2)C(=O)c2cc(OC)c(C)c(OC)c2)n1 [Example 71] | 18
6 | 2400 | 7.77 | 135 to 137 | COC(=O)N(C)S(=O)(=O)NC(=O)c1csc(CN(CCCc2ccccc2)C(=O)c2cc(OC)c(C)c(OC)c2)n1 [Example 89] | –
7 | 6700 | – | – | COc1cc(C(=O)N(CCCc2ccccc2)Cc2nc(C(=O)NS(=O)(=O)N(C)CCF)c(C)s2)cc(OC)c1C [Example 100] | –
8 | 8900 | 7.70 | 132 to 135 | COc1ccc(CC(=O)N(CCCc2ccccc2)Cc2nc(C(=O)NS(=O)(=O)N(C)C)c(C)s2)c(OC)c1 [Example 126] | –
9 | 1400 | 7.60 | – | CONS(=O)(=O)NC(=O)c1nc(CN(CCCc2ccccc2)C(=O)c2cc(OC)cc(OC)c2)sc1C [Example 134] | –
10 | 5600 | 7.64 | 113 to 114 | COc1cc(OC)cc(C(=O)N(CCCc2ccccc2)Cc2nc(C(=O)NS(C)(=O)=O)c(Cl)s2)c1 [Example 145] | 16
11 | 5200 | 7.68 | 162 to 164 | CCc1c(OC)cc(C(=O)N(CCCc2ccccc2)Cc2nc(C(=O)NS(=O)(=O)NC)c(C)s2)cc1OC [Example 153] | 21
12 | 2100 | 7.82 | – | CNS(=O)(=O)NC(=O)c1nc(CN(CCCc2ccccc2)C(=O)c2cc(OC)c(C3CC3)c(OC)c2)sc1C [Example 156] | –
13 | 1800 | 7.47 | 127 to 129 | CCN(CCO)S(=O)(=O)NC(=O)c1csc(CN(CCCc2ccccc2)C(=O)c2cc(OC)c(C)c(OC)c2)n1 [Example 170] | –
14 | 2200 | – | – | COc1cc(C(=O)N(CCCc2ccccc2)Cc2nc(C(=O)NS(=O)(=O)N(CCO)CCO)c(C)s2)cc(OC)c1C [Example 171] | –
15 | 4500 | 7.62 | 120 to 121 | COc1ccc(C(O)C(=O)N(CCCc2ccccc2)Cc2nc(C(=O)NS(N)(=O)=O)c(C)s2)cc1 (centres unmarked) [Example 176] | –
